The values that follow come from PMC6881254, “ABCA1 transporter reduces amphotericin B cytotoxicity in mammalian cells” (Cellular and Molecular Life Sciences: CMLS, 2019).

In experiment [1] the test system is Raw 264.7 macrophages. In words: AmB cytotoxicity, MTT assay in Raw 264.7 macrophages. The format is cell-based, murine. The conditions noted are these: Mus musculus, RAW264.7, AmB 3 h, read-out: IC50 (cell viability, MTT). As for the experimental part: (§1) A1G and MMG cell lines, mock and GW3965-treated macrophages were seeded in triplicate in 96-well plates at 1 × 10^4 cells/well for CHO cells and 2 × 10^4 cells for Raw 264.7 macrophages and incubated in complete Ham’s F-12 medium at 37 °C, 5% CO2 overnight to allow the cells to attach to the plate. The medium was then removed, AmB was added in complete Ham’s F-12 medium (or in ΔFBS medium, see next paragraph) in different concentrations (from 0 to 40 µg/mL) and cells were incubated for 3 h at 37 °C. For probucol treatment, the cells were preincubated with 10 µM probucol in complete Ham’s F-12 medium at 37 °C, 5% CO2 for 2 h. Then, the medium was removed and AmB was added in different concentrations (from 0 to 40 µg/mL) in complete Ham’s F-12 medium containing 10 µM probucol and cells were incubated for additional 3 h at 37 °C, 5% CO2. […] Plates were shaken for 10 min before reading them on a UVM 340 microplate reader (Biogenet) at 550 nm with a reference wavelength of 630 nm. […]
(§2) All mathematical and statistical analysis was performed using the GraphPad Prism 7 software package (GraphPad). […] The statistical significance of differences was assessed either by two-way ANOVA or by t test. […]
Cells were exposed to increased concentrations of AmB, ranging from 0 to 40 µg/mL, for 3 h and then the viability was analyzed by MTT assay. […]
On the technique in general: Tetrazolium dyes change colour on reduction, which living cells bring about.

Experiment [2] deals with A1G cells. Briefly: [3H]-cholesterol efflux to AmB as acceptor in A1G cells. The following applies: 20 µg/mL AmB. The format is cell-based, Chinese hamster. The protocol:
(§3) The [^3H]-cholesterol efflux protocol was adapted from Yang and Gelissen. Briefly, A1G and MMG cells were seeded in 0.5 mL of complete Ham’s F12 medium at 5 × 10^4 cells/well in 24-well plates and grown overnight at 37 °C, 5% CO2. The next day, the cell culture medium was replaced either with 0.25 mL of complete Ham’s F12 medium or complete Ham’s F12 medium containing 1 µCi/mL of [^3H]-cholesterol (Perkin Elmer) and incubated for 24 h at 37 °C, 5% CO2. On the last day, the cell medium was removed, and the cells were washed three times with PBS buffer (with intermediate 15 min incubation in PBS buffer). Afterwards, cells were incubated for 3 h in 0.25 mL of complete Ham’s F12 medium containing (or not, in controls) 20 µg/mL of AmB at 37 °C, 5% CO2. […] One hundred fifty microliters of each of cell medium and cell lysate were added to 5 mL of Ecolite + scintillation cocktail (MPBIO) and radioactivity was counted in CPM mode using a Beckman LS analyzer (Beckman Coulter). After subtraction of background radioactivity, the percentage of [^3H]-cholesterol efflux was calculated according to the formula: (CPM in media)/[(CPM in media) + (CPM in cells)].

In experiment [3] the test system is MMG cells. In words: [3H]-cholesterol efflux to AmB as acceptor in MMG cells. The format is cell-based, Chinese hamster. The following applies: 20 µg/mL AmB. The protocol:
as §3

Experiment [4] deals with A1G cells. In words: AmB cytotoxicity, MTT assay in A1G cells (CHO-K1 stably expressing ABCA1-GFP). The format is cell-based, Chinese hamster. The following applies: Cricetulus griseus, ± SE. As for the experimental part:
(§4) A1G and MMG cell lines, mock and GW3965-treated macrophages were seeded in triplicate in 96-well plates at 1 × 10^4 cells/well for CHO cells and 2 × 10^4 cells for Raw 264.7 macrophages and incubated in complete Ham’s F-12 medium at 37 °C, 5% CO2 overnight to allow the cells to attach to the plate. […] For probucol treatment, the cells were preincubated with 10 µM probucol in complete Ham’s F-12 medium at 37 °C, 5% CO2 for 2 h. Then, the medium was removed and AmB was added in different concentrations (from 0 to 40 µg/mL) in complete Ham’s F-12 medium containing 10 µM probucol and cells were incubated for additional 3 h at 37 °C, 5% CO2. After incubation, the medium was removed and 3-[4,5-dimethylthiazol-2-yl]-2,5-diphenyltetrazolium bromide (MTT, 0.5 mg/mL, Sigma-Aldrich) in complete Ham’s F-12 was added. Cells were incubated for 4 h at 37 °C, then MTT was removed carefully and the formazan crystals were dissolved in DMSO. Plates were shaken for 10 min before reading them on a UVM 340 microplate reader (Biogenet) at 550 nm with a reference wavelength of 630 nm. The cell viability was estimated as the percentage of the control, which was the cells untreated with any agents (100%).
(§5) To lower the cholesterol content in the cells, A1G and MMG cell lines were seeded at either 1 × 10^4 cells/well in a 96-well plate (cytotoxicity) or 4 × 10^5 cells/well (cholesterol content) in a 6-well plate in complete Ham’s F-12 medium for 8 h to allow the cells to attach to the plate. Cells were then washed three times with Ham’s F-12 medium supplemented with delipidated serum (Biowest) (ΔFBS medium) and incubated with 10 µM zaragozic acid (ZA) in ΔFBS medium for 16 h at 37 °C, 5% CO2. To reload the plasma membrane with cholesterol, cells after ZA treatment were washed three times with ΔFBS medium and incubated with 100 µM cholesterol–1 mM methyl-β-cyclodextrin complex in ΔFBS medium for 30 min at 37 °C, 5% CO2. As a control, cells were incubated for 16 h with only ΔFBS medium at 37 °C, 5% CO2. After treatment, cells were either processed with AmB cytotoxicity MTT assay or lysed as described for cholesterol content measurement.
(§6) All mathematical and statistical analysis was performed using the GraphPad Prism 7 software package (GraphPad). For IC50 value determination, a nonlinear fit (inhibitor vs. normalized response with variable slope) of cell viability in the function of AmB decreased concentrations was applied. The statistical significance of differences was assessed either by two-way ANOVA or by t test. For all tests, the significance level (alpha, α) was set to 0.05. Significant differences are indicated in individual graphs with p values as follows: ****p < 0.0001, ***p < 0.001, **p < 0.01, *p < […]. If the differences were not significant, nothing is stated. For each result, an appropriate description of the analysis appears in the figure legend.

The test system of experiment [5] is MMG cells. Briefly: AmB cytotoxicity, MTT assay in MMG cells (CHO-K1 stably expressing non-active ABCA1MM-GFP). The conditions noted are these: Cricetulus griseus, ± SE. The format is cell-based, Chinese hamster. The protocol: as §4, §5, §6
Experiment [6] deals with CHO-K1 wild-type cells. Briefly: AmB cytotoxicity, MTT assay in CHO-K1 wild-type cells. The conditions noted are these: Cricetulus griseus, AmB 3 h, read-out: IC50 (cell viability, MTT). The class given is cell-based, Chinese hamster. As for the experimental part:
as §1, with “CO2. After incubation, the medium was removed and 3-[4,5-dimethylthiazol-2-yl]-2,5-diphenyltetrazolium bromide (MTT, 0.5 mg/mL, Sigma-Aldrich) in complete Ham’s F-12 was added.” for “CO2.”
as §2

The subject of experiment [7] is A1G and MMG cell lines. In words: Total cellular cholesterol content (Amplex Red) after zaragozic acid treatment. The class given is cell-based, Chinese hamster. The conditions noted are these: 10 µM ZA in ΔFBS medium 16 h, compared with non-ZA-treated cells cultured in ΔFBS medium. The protocol: To lower the cholesterol content in the cells, A1G and MMG cell lines were seeded at either 1 × 10^4 cells/well in a 96-well plate (cytotoxicity) or 4 × 10^5 cells/well (cholesterol content) in a 6-well plate in complete Ham’s F-12 medium for 8 h to allow the cells to attach to the plate. Cells were then washed three times with Ham’s F-12 medium supplemented with delipidated serum (Biowest) (ΔFBS medium) and incubated with 10 µM zaragozic acid (ZA) in ΔFBS medium for 16 h at 37 °C, 5% CO2. […]
The cells were harvested, washed three times with PBS and lysed with RIPA buffer (25 mM HEPES, pH 7.4, 150 mM NaCl, 1% NP40, 10 mM MgCl2, 1 mM EDTA, 2% glycerol, protease and phosphatase inhibitor cocktail) for 30 min on ice. […] Total cellular cholesterol level was determined enzymatically by cholesterol oxidase using the Amplex Red Cholesterol Assay Kit (Thermo Fisher Scientific) according to the manufacturer’s recommendations. […] The protein concentration was measured by BCA Assay Kit (Sigma-Aldrich). […] Fluorescence was measured using excitation at 560 nm and emission detection at 590 nm with a Cary Eclipse fluorescence microplate reader (Agilent Technologies). […] The final cholesterol content was calculated in ng of cholesterol per µg of protein.

Structures are written as SMILES. Converted amounts (≈) assume the structure as drawn. Like-named read-outs stand apart in the source and are kept apart here.

For `C[C@@H]1[C@H](O)[C@@H](C)/C=C/C=C/C=C/C=C/C=C/C=C/C=C/[C@H](O[C@@H]2O[C@H](C)[C@@H](O)[C@H](N)[C@@H]2O)C[C@@H]2O[C@](O)(C[C@@H](O)C[C@@H](O)[C@H](O)CC[C@@H](O)C[C@@H](O)CC(=O)O[C@H]1C)C[C@H](O)[C@H]2C(=O)O` [AmB, Amphotericin B], the IC50 (as a rule, the midpoint of a concentration-inhibition curve) in experiment [1] (Raw 264.7 cells induced with 1 µM GW3965 for 24 h (ABCA1 expression)) was found to be 14.6 µg/mL (≈ 15.7 µM); in experiment [1] (mock (DMSO) control Raw 264.7 cells), 6.18 µg/mL (≈ 6.69 µM); in experiment [4] (CHO-K1, 3 h, A1G, complete Ham's F12 medium, AmB 3 h), 39.2 ± 4.49 µg/mL (≈ 42.4 µM); in experiment [4] (CHO-K1, 6 h, A1G, complete Ham's F12 medium, 6 h AmB), 30.9 ± 1.66 µg/mL (≈ 33.5 µM); in experiment [4] (CHO-K1, 16 h, A1G, complete Ham's F12 medium, 16 h AmB), 11.4 ± 0.35 µg/mL (≈ 12.4 µM); in experiment [4] (CHO-K1, 16 h, A1G, ΔFBS medium + 10 µM zaragozic acid (ZA) 16 h) it was 9.75 ± 0.53 µg/mL. Moreover, the IC50 in experiment [4] (CHO-K1, A1G, complete Ham's F12 + 10 µM probucol (2 h pretreatment), AmB 3 h) worked out at 14.4 ± 0.36 µg/mL; in experiment [4] (CHO-K1, A1G, ΔFBS medium (delipidated serum)), 21.2 ± 1.09 µg/mL (≈ 22.9 µM); in experiment [4] (CHO-K1, A1G, ΔFBS medium + ZA, reloaded with cholesterol (MβCD complex)), 18.9 ± 0.77 µg/mL; in experiment [5] (CHO-K1, 3 h, MMG, complete Ham's F12 medium, AmB 3 h), 13.1 ± 1 µg/mL (≈ 14.2 µM); in experiment [5] (CHO-K1, 6 h, MMG, complete Ham's F12 medium, 6 h AmB), 10.6 ± 0.48 µg/mL (≈ 11.5 µM); in experiment [5] (CHO-K1, 16 h, MMG, complete Ham's F12 medium, 16 h AmB), 6.65 ± 0.28 µg/mL (≈ 7.2 µM). For the same molecule, the IC50 in experiment [5] (CHO-K1, 16 h, MMG, ΔFBS medium + 10 µM zaragozic acid (ZA) 16 h) came to 10 ± 0.67 µg/mL; in experiment [5] (CHO-K1, MMG, complete Ham's F12 + 10 µM probucol (2 h pretreatment), AmB 3 h), 9.47 ± 0.31 µg/mL; in experiment [5] (CHO-K1, MMG, ΔFBS medium (delipidated serum)), 10.2 ± 0.42 µg/mL (≈ 11 µM); in experiment [5] (CHO-K1, MMG, ΔFBS medium + ZA, reloaded with cholesterol (MβCD complex)) it was 6.42 ± 0.38 µg/mL; in experiment [6], 16.8 µg/mL (≈ 18.1 µM). The “[3H]-cholesterol efflux to AmB” value amounted to 5.1% in experiment [2] and 0.3% in experiment [3].

Turning to `C=C(CC[C@]12O[C@H](C(=O)O)[C@@](O)(C(=O)O)[C@](C(=O)O)(O1)[C@H](OC(=O)/C=C/[C@@H](C)C[C@@H](C)CC)[C@H]2O)[C@@H](OC(C)=O)[C@H](C)Cc1ccccc1` [zaragozic acid], the “decrease of total cellular cholesterol content” value in experiment [7] is on record as “approximately 50%”.
